Converted amounts (≈) assume the structure as drawn.
Columns and labels:
[1] = target: Prolyl endopeptidase, Prolyl Oligopeptidase (hPREP) (Homo sapiens (Human), UniProt P48147); experiment: hPrep inhibition assay; type: biochemical; conditions: hPREP 0.6 nM, Z-Gly-Pro-amino-methylcoumarin 50 μM; read-out: PREP IC50
In short: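 Fluorogenic read-out (340 nm excitation, 460 nm emission) after 20 min at rt, using 50 μM final Z-Gly-Pro-aminomethylcoumarin and 0.6 nM final enzyme, following 15 min compound preincubation. Buffer pH 7.5 with glutathione and Triton X-100. IC50 via one-site model on % inhibition vs log concentration.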

[2] = target: human Fibroblast activation protein alpha (hFAP) (Homo sapiens (Human), UniProt Q12884); experiment: hFAP inhibition assay (tight binders); type: biochemical; conditions: Ala-Pro-AMC 20 μM, n = 1 or geometric mean n = 2-6; also: hFAP 2.4 pM
Description: The plates were read on a PHERAstar® reader with excitation 340 nm and emission 460 nm. Data were analyzed in Genedata Screener®. IC50 values were determined by plotting % inhibition versus log compound concentration and using a one site dose response model.

[3] = Metabolic stability in rat hepatocytes (rHep); conditions: n = 1 or geometric mean of n = 2-3
[4] = Metabolic stability in human liver microsomes (HLM); conditions: human
Description: Metabolic stability in HLM was measured as described in J Comput Aided Mol Des 2015, 29, 795.

[5] = Metabolic stability in human hepatocytes (hHep); type: in vitro ADME; conditions: n = 1 or geometric mean of n = 2
Caco-2 cell permeability = conditions: human
Description: Caco-2 cell permeability was measured as described in Mol Pharm 2017, 14, 1601.

FAP [6] = target: T1, FAP (Homo sapiens (Human), UniProt Q12884); experiment: FAP plasma inhibition assay, human plasma; type: biochemical; conditions: human plasma diluted 1:40, Ala-Pro-AMC 75 μM
Description: This assay was adapted from the method described in Example 237 for detection of FAP target engagement enzyme activity in plasma. Plasma (anticoagulant K2EDTA) was used as the enzyme source: Human plasma (Pooled from AZ Biobank), Mouse plasma (AZ AST Biobank), and Cynomolgus plasma (BioIVT, #NHP00PLK2FNN, lot CYN222895). 384-Well black fluotrack PS plates (Greiner 781076) were used. 20 μL diluted plasma (Cynomolgus and Human plasma dilution 1:40, Mouse plasma dilution 1:67) in buffer (PBS, 0.1% BSA) was added to 0.6 μL compounds (in DMSO). Compounds were tested using 10 CR, 3 fold dilution series from 500 nM FAC. Two replicates for each assay point were run on the same plate. A fluorescence blank read was taken before substrate addition. […] Plates were incubated for 40 min at rt in the dark. […] IC50 values were determined by plotting % inhibition versus log compound concentration.
Target sequence in this assay (Q12884 24-760): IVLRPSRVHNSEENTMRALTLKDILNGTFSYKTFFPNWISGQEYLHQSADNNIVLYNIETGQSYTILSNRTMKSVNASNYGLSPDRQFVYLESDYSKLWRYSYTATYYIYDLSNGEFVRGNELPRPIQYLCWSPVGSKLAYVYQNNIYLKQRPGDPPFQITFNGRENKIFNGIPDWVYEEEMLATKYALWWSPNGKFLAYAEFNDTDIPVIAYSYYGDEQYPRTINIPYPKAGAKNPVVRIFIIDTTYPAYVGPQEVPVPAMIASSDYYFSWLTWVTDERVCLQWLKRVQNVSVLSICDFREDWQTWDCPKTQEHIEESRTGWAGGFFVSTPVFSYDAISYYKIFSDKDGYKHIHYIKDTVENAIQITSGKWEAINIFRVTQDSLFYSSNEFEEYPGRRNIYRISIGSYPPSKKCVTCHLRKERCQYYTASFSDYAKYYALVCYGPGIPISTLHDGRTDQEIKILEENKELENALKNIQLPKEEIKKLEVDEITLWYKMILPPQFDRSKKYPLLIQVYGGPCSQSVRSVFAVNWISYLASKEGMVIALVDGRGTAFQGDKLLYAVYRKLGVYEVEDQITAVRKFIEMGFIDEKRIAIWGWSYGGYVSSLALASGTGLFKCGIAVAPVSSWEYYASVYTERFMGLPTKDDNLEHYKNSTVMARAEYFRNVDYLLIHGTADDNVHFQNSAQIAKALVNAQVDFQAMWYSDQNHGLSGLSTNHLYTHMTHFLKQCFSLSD

FAP [7] = target: FAP (Mus musculus (Mouse), UniProt P97321); experiment: FAP plasma inhibition assay, mouse plasma; type: biochemical; conditions: mouse plasma diluted 1:67, Ala-Pro-AMC 75 μM
In short: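 K2EDTA plasma served as enzyme source, human diluted 1:40 and mouse 1:67, in PBS with 0.1% BSA. Compounds ran as a 10-point 3-fold series from 500 nM final, in duplicate, 40 min at rt in the dark, with fluorescence read against a pre-substrate blank. IC50 came from % inhibition versus log concentration.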

hFAP (M39-A757) = hFAP (M39-A757) (Homo sapiens (Human), UniProt Q12884); experiment: hFAP binding assay (surface plasmon resonance); conditions: SPR, 20° C.; for hFAP Binding assay k(off) / hFAP Binding assay k(on): single cycle kinetics; for Kd: n = 1 or geometric mean n = 2-4
FAP [8] = target: T1, FAP; experiment: hFAP inhibition assay; type: biochemical; conditions: hFAP […], Ala-Pro-AMC 20 μM; n = 1 or geometric mean n = 2-3
In short: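 Compounds (10-point, 3-fold dilutions from 50 μM top) were preincubated 15 min at rt in the dark with 0.48 nM hFAP in pH 7.4 Tris/NaCl/Chaps buffer. Reaction was started with substrate (40 μM solution) and ran 30 min at rt. Read by fluorescence (340/460 nm); IC50 from one-site fit.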
Target sequence in this assay (Q12884 38-760): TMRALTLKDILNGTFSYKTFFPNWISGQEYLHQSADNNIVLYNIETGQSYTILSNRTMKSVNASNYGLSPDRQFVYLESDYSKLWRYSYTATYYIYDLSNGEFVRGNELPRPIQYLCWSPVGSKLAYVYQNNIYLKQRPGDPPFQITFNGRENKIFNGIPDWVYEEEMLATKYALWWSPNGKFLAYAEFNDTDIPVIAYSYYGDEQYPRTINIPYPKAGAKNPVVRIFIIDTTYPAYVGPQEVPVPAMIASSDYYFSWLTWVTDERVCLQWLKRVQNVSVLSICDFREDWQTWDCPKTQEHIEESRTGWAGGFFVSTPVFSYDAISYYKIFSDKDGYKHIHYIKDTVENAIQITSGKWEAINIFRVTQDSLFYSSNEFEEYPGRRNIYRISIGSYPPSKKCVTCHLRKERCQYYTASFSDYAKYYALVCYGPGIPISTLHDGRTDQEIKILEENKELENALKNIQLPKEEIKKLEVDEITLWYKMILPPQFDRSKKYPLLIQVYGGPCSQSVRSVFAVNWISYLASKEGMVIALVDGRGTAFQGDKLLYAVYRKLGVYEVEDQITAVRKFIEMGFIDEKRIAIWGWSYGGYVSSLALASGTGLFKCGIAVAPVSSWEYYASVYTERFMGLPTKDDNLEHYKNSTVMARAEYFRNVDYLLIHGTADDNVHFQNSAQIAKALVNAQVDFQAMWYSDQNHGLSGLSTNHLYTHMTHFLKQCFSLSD

Kinetic solubility = conditions: kinetic from dmso stock
Description: Kinetic solubility was measured as described in Comput Aided Mol Des 2015, 29, 795.

[9] = target: human dipeptidylpeptidase 7 (hDPP7) (Homo sapiens (Human), UniProt Q9UHL4); experiment: hDPP7 inhibition assay; type: biochemical; conditions: hDPP7 15 nM, Ala-Pro-amino-methylcoumarin 5 μM, n = 1
Description: Compounds were tested in a biochemical inhibition assay using human dipeptidylpeptidase 7 (hDPP7) enzyme at 15 nM FAC (BPS Bioscience, #80070) and the substrate Ala-Pro-amino-methylcoumarin (BPS Bioscience, #80305) at 5 μM FAC. The enzymatic reactions were conducted in duplicate at rt for 30 min in 50 μL DPP assay buffer (BPS Bioscience, #80300). Compound solutions (in DMSO) at 10 CR, 3 fold dilution series were prepared in assay buffer ten-fold higher than the final concentration, and 5 μL of the dilution was added to a 50 μL reaction so that the highest compound concentration was 100 μM FAC and the concentration of DMSO was 1% in all wells. The plates were read on a Tecan Infinite M1000 microplate reader with excitation 340 nm and emission 460 nm. Data were analyzed in Graph Pad Prism. IC50 values were determined by plotting % inhibition versus log compound concentration and using a one site dose response model. Raw data signals were normalized using 1% DMSO as 0% control and no enzyme as 100% inhibitor control.

[10] = HLM CLint, n = 1 or average of n = 2-3
[11] = Solubility, kinetic solubility, n = 1 or average of n = 2-3

Chain of hFAP (M39-A757) (Q12884 39-757): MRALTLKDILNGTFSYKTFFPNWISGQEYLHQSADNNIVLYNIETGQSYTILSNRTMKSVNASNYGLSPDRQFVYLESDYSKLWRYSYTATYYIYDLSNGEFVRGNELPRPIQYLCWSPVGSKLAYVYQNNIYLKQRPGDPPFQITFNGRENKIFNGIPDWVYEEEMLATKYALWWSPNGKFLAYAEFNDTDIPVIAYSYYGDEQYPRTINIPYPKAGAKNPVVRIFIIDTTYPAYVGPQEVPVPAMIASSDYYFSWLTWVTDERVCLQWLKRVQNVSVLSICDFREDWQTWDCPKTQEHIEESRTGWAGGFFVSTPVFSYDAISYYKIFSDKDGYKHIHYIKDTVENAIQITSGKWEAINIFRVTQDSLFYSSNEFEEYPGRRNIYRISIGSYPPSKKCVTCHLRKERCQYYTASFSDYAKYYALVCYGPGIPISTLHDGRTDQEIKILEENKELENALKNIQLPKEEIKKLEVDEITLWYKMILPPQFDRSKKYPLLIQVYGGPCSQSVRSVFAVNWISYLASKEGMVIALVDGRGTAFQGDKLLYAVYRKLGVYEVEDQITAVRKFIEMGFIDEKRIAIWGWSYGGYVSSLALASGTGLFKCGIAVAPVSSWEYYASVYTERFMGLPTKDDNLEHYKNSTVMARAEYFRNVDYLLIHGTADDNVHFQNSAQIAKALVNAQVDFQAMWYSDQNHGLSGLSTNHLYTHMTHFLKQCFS
Chain of human Fibroblast activation protein alpha (hFAP) (Q12884 38-760): as the sequence (Q12884 38-760) above
Chain of FAP (Mus musculus (Mouse), UniProt P97321) (P97321 24-761): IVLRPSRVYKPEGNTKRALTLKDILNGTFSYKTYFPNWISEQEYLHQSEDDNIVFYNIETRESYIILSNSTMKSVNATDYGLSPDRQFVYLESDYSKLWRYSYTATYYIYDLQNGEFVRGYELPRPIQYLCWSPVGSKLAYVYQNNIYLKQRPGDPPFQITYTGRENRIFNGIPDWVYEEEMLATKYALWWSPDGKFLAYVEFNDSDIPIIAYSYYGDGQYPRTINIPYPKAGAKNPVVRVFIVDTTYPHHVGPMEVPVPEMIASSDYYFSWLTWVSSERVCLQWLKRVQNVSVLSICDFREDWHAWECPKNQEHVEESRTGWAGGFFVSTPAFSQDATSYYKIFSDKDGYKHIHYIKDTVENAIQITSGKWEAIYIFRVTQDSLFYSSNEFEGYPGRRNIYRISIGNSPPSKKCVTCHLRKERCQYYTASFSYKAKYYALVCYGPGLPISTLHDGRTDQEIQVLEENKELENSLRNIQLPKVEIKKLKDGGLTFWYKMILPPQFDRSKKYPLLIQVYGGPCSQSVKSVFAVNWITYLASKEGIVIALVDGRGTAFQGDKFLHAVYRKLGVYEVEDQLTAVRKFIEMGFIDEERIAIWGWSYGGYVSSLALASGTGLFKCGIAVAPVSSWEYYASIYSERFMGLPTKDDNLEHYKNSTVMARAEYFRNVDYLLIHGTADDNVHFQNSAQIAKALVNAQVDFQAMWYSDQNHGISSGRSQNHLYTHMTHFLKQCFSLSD
Chain of Prolyl endopeptidase, Prolyl Oligopeptidase (hPREP) (P48147 whole entry): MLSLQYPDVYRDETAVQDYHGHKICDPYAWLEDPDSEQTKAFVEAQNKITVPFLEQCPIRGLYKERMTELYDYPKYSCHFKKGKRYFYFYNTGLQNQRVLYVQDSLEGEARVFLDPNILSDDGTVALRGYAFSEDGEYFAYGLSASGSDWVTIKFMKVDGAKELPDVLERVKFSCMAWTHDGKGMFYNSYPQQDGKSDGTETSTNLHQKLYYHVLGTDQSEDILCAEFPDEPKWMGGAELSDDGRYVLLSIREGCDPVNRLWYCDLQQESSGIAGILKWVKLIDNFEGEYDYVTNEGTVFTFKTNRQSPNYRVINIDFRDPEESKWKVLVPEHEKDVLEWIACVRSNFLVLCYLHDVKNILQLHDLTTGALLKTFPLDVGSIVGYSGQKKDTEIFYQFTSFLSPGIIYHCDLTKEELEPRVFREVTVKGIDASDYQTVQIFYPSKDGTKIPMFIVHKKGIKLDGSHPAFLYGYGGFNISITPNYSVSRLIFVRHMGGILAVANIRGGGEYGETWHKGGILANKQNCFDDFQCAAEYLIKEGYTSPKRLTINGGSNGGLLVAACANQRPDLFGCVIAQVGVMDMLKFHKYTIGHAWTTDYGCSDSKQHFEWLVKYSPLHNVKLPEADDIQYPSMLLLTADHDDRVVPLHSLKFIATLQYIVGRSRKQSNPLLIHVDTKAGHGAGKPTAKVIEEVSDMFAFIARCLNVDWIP

Compound	IC50 [1]	IC50 [2]	rHep CLint [3]	microsomal CLint [4, 10]	hHep CLint [5]	Papp (Caco-2 cell permeability)	Papp A→B (Caco-2 cell permeability)	Papp B→A (Caco-2 cell permeability)	efflux ratio (Caco-2 cell permeability)	IC50 (FAP [6])	IC50 (FAP [7])	hFAP Binding assay k(off) (hFAP (M39-A757))	hFAP Binding assay k(on) (hFAP (M39-A757))	Kd (hFAP (M39-A757))	IC50 (FAP [8])	solubility (Kinetic solubility; [11])	IC50 [9]	microsomal CLint [4]	solubility (Kinetic solubility)
N#C[C@@H]1CSCN1C(=O)CNC(=O)c1ccnc2ccc(N3CC(C(F)F)C3)cc12 [Example 28, (R)—N-(2-(4-Cyanothiazolidin-3-yl)-2-oxoethyl)-6-(3-(difluoromethyl)-azetidin-1-yl)quinoline-4-carboxamide]	580 nM	0.1 nM	13 μL/min/1E6	< 3 µL/min/mg	2.6 μL/min/1E6	21 ×10⁻⁶ cm/s	1.6 ×10⁻⁶ cm/s	20 ×10⁻⁶ cm/s	12	0.2 nM	0.5 nM	0.00011 s⁻¹	1100000 M⁻¹ s⁻¹	0.11 nM	0.26 nM	73 µM (≈ 31.5 µg/mL)	–	–	–
N#C[C@@H]1CSCN1C(=O)CNC(=O)c1ccnc2ccc(N3CC4(COC4)C3)cc12 [Example 166, (R)—N-(2-(4-Cyanothiazolidin-3-yl)-2-oxoethyl)-6-(2-oxa-6-azaspiro[3.3]heptan-6-yl)quinoline-4-carboxamide]	1700 nM	0.22 nM	<1 μL/min/1E6	–	<1 μL/min/1E6	2 ×10⁻⁶ cm/s	0.56 ×10⁻⁶ cm/s	13 ×10⁻⁶ cm/s	24	0.3 nM	0.6 nM	0.000049 s⁻¹	2200000 M⁻¹ s⁻¹	0.03 nM	0.34 nM	–	–	< 3 µL/min/mg	> 910 µM
N#C[C@@H]1CSCN1C(=O)CNC(=O)c1c(F)cnc2ccc(N3CCOCC3)cc12 [Example 2, (R)—N-(2-(4-Cyanothiazolidin-3-yl)-2-oxoethyl)-3-fluoro-6-morpholino-quinoline-4-carboxamide]	1700 nM	0.52 nM	3 μL/min/1E6	22 µL/min/mg	<1 μL/min/1E6	23 ×10⁻⁶ cm/s	0.98 ×10⁻⁶ cm/s	31 ×10⁻⁶ cm/s	32	8.1 nM	7.3 nM	0.0038 s⁻¹	410000 M⁻¹ s⁻¹	9.5 nM	–	83 µM (≈ 35.6 µg/mL)	–	–	–
N#C[C@@H]1CSCN1C(=O)CNC(=O)c1ccnc2ccc(N3C[C@@H](F)[C@@H](F)C3)cc12 [Example 50, N-(2-((R)-4-Cyanothiazolidin-3-yl)-2-oxoethyl)-6-((3R,4S)-3,4-difluoropyrrolidin-1-yl)quinoline-4-carboxamide]	540 nM	0.069 nM	20 μL/min/1E6	13 µL/min/mg	1.7 μL/min/1E6	–	0.83 ×10⁻⁶ cm/s	27 ×10⁻⁶ cm/s	32	0.3 nM	0.5 nM	–	–	0.071 nM	0.34 nM	33 µM (≈ 14.2 µg/mL)	–	–	–
N#C[C@@H]1CSCN1C(=O)CNC(=O)c1ccnc2ccc(N3C4CCC3COC4)cc12 [Example 98, 6-(3-Oxa-8-azabicyclo[3.2.1]octan-8-yl)-N-(2-((R)-4-cyanothiazolidin-3-yl)-2-oxoethyl)quinoline-4-carboxamide]	790 nM	0.11 nM	13 μL/min/1E6	26 µL/min/mg	1.8 μL/min/1E6	8.6 ×10⁻⁶ cm/s	0.71 ×10⁻⁶ cm/s	18 ×10⁻⁶ cm/s	25	0.2 nM	0.4 nM	0.000015 s⁻¹	1600000 M⁻¹ s⁻¹	0.0088 nM	0.27 nM	> 1000 µM	–	–	–

Now from value to compound, other results behind:

IC50 [1]	IC50 [2]	rHep CLint [3]	microsomal CLint [4, 10]	hHep CLint [5]	Papp (Caco-2 cell permeability)	Papp A→B (Caco-2 cell permeability)	Papp B→A (Caco-2 cell permeability)	efflux ratio (Caco-2 cell permeability)	IC50 (FAP [6])	IC50 (FAP [7])	hFAP Binding assay k(off) (hFAP (M39-A757))	hFAP Binding assay k(on) (hFAP (M39-A757))	Kd (hFAP (M39-A757))	IC50 (FAP [8])	solubility (Kinetic solubility; [11])	IC50 [9]	Compound	microsomal CLint [4]	solubility (Kinetic solubility)
1100 nM	0.22 nM	<1 μL/min/1E6	< 3 µL/min/mg	<1 μL/min/1E6	0.1 ×10⁻⁶ cm/s	0.25 ×10⁻⁶ cm/s	0.78 ×10⁻⁶ cm/s	3.1	0.2 nM	0.6 nM	0.000014 s⁻¹	950000 M⁻¹ s⁻¹	0.015 nM	0.4 nM	930 µM (≈ 432 µg/mL)	–	CC(=O)N1CC2(C1)CN(c1ccc3nccc(C(=O)NCC(=O)N4CSC[C@H]4C#N)c3c1)C2 [Example 184, (R)-6-(6-Acetyl-2,6-diazaspiro[3.3]heptan-2-yl)-N-(2-(4-cyanothiazolidin-3-yl)-2-oxoethyl)quinoline-4-carboxamide]	–	–
–	–	–	–	–	–	–	–	–	–	–	–	–	–	–	–	> 100000 nM	N#C[C@@H]1CSCN1C(=O)CNC(=O)c1ccnc2ccc(N3CCC4(CCCC4)OC3=O)cc12 [Example 111, (R)—N-(2-(4-cyanothiazolidin-3-yl)-2-oxoethyl)-6-(7-oxo-6-oxa-8-azaspiro[4.5]decan-8-yl)quinoline-4-carboxamide]	–	–
2300 nM	0.094 nM	13 μL/min/1E6	28 µL/min/mg	<1 μL/min/1E6	–	1.8 ×10⁻⁶ cm/s	53 ×10⁻⁶ cm/s	29	0.2 nM	0.3 nM	0.00016 s⁻¹	1100000 M⁻¹ s⁻¹	0.14 nM	–	180 µM (≈ 86.3 µg/mL)	–	N#C[C@@H]1CSCN1C(=O)CNC(=O)c1ccnc2ccc(N3CCO[C@H](C(F)(F)F)C3)cc12 [Example 74, N-(2-((R)-4-Cyanothiazolidin-3-yl)-2-oxoethyl)-6-((S)-2-(trifluoromethyl)-morpholino)quinoline-4-carboxamide]	–	–
1200 nM	0.074 nM	8.6 μL/min/1E6	22 µL/min/mg	<1 μL/min/1E6	13 ×10⁻⁶ cm/s	1.3 ×10⁻⁶ cm/s	29 ×10⁻⁶ cm/s	23	0.2 nM	0.3 nM	0.00034 s⁻¹	4200000 M⁻¹ s⁻¹	0.082 nM	0.31 nM	> 980 µM	–	CC1(C)CN(c2ccc3nccc(C(=O)NCC(=O)N4CSC[C@H]4C#N)c3c2)CCO1 [Example 88, (R)—N-(2-(4-Cyanothiazolidin-3-yl)-2-oxoethyl)-6-(2,2-dimethyl-morpholino)quinoline-4-carboxamide]	–	–

— patent US20230312550A1, “N-(2-(4-CYANOTHIAZOLIDIN-3-YL)-2-OXOETHYL)-QUINOLINE-4-CARBOXAMIDES” (AstraZeneca AB, priority 2020, published 2023)
